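Growth conditions: 96-well plates. Treatment: test compound, 48 hours, 5 concentrations. Analysis: linear interpolation between bracketing concentrations; unreached endpoints set to highest concentration. GI50 marks 50% less growth.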 The source made the active and inactive calls. No stated cut-off is given here; in the data, active = GI50 up to about 1.1 µM and inactive = higher. Where a SMILES comes first, the peptide text is derived from it. The star is where a group is joined. Boc = CC(C)(C)OC(=O)*
Columns and labels:
Assay in all cases: DTP human tumour cell line panel, 48 h
[1] = system: SK-OV-3
[2] = system: UO-31
[3] = system: MCF7
[4] = system: CCRF-CEM
[5] = system: OVCAR-3
[6] = system: HCT-116
[7] = system: COLO 205
[8] = system: SF-268
[9] = system: HOP-92
[10] = system: HOP-62
[11] = system: UACC-257
[12] = system: NCI-H522
[13] = system: MOLT-4
[14] = system: IGROV-1
[15] = system: OVCAR-4
[16] = system: SN12C
[17] = system: NCI/ADR-RES
[18] = system: K562
[19] = system: M14
[20] = system: SR

Row | SMILES | GI50 [1] | GI50 [2] | GI50 [3] | GI50 [4] | GI50 [5] | GI50 [6] | GI50 [7] | GI50 [8] | GI50 [9] | GI50 [10] | GI50 [11] | GI50 [12] | GI50 [13] | GI50 [14] | GI50 [15] | GI50 [16] | GI50 [17] | GI50 [18] | GI50 [19] | GI50 [20]
1 | O=C1C(Br)=CC2([N+](=O)[O-])CCNC3=C(C4=NCCc5c[nH]c(c54)C3=O)C2=C1Br (configuration not stated) | 3.13 µM (inactive) | 9.59 µM (inactive) | 0.0562 µM (active) | 0.304 µM (active) | 0.0546 µM (active) | 0.317 µM (active) | 0.0178 µM (active) | 2.26 µM (inactive) | 0.811 µM (active) | 3.58 µM (inactive) | 0.279 µM (active) | 0.1 µM (active) | 1.14 µM (inactive) | 1.99 µM (inactive) | 1.76 µM (inactive) | 1.78 µM (inactive) | 0.128 µM (active) | 0.424 µM (active) |  | 
2 | Cc1c2cnccc2c(C)c2c1c1ccccc1n2CC1CO1 (configuration not stated) | 2.53 µM (inactive) | 1.42 µM (inactive) | 0.0422 µM (active) | 0.0389 µM (active) | 1.57 µM (inactive) | 0.327 µM (active) | 1.16 µM (inactive) | 0.323 µM (active) | 1.81 µM (inactive) | 1.64 µM (inactive) | 1.75 µM (inactive) | 1.07 µM (active) | 0.0213 µM (active) | 1.48 µM (inactive) | 1.99 µM (inactive) | 0.174 µM (active) | 0.826 µM (active) | 0.859 µM (active) |  | 
3 | CC1C2CC(CC2O)C1(C)C (configuration not stated) | > 100 µM (inactive) | > 100 µM (inactive) |  | > 100 µM (inactive) | > 100 µM (inactive) | > 100 µM (inactive) | > 100 µM (inactive) | > 100 µM (inactive) | > 100 µM (inactive) | > 100 µM (inactive) | > 100 µM (inactive) | > 100 µM (inactive) | > 100 µM (inactive) | > 100 µM (inactive) | > 100 µM (inactive) | > 100 µM (inactive) |  | > 100 µM (inactive) | > 100 µM (inactive) | > 100 µM (inactive)
4 | CC(=O)NNc1nc(C)c(C(=O)NNC(=O)C(=O)Nc2ccccc2C#N)s1 | > 100 µM (inactive) | > 100 µM (inactive) |  | 65.9 µM (inactive) | > 100 µM (inactive) | > 100 µM (inactive) | > 100 µM (inactive) | > 100 µM (inactive) | > 100 µM (inactive) | > 100 µM (inactive) | > 100 µM (inactive) | 88.1 µM (inactive) | > 100 µM (inactive) | > 100 µM (inactive) | > 100 µM (inactive) | > 100 µM (inactive) |  | > 100 µM (inactive) | > 100 µM (inactive) | 87.1 µM (inactive)
5 | COc1cc(O)c2c(=O)cc(C3(O)C=CC(=O)C=C3)oc2c1 | 2.37 µM (inactive) | 0.0733 µM (active) |  | < 0.01 µM (active) |  | 0.29 µM (active) | 0.463 µM (active) | 0.428 µM (active) |  | 0.182 µM (active) | 0.489 µM (active) | < 0.0361 µM (active) | 0.0815 µM (active) | < 0.01 µM (active) | 0.393 µM (active) | 0.135 µM (active) | 0.0588 µM (active) | < 0.01 µM (active) | 0.542 µM (active) | < 0.01 µM (active)
6 | COc1ccc(-c2cc(O)c3ccc(C)nc3n2)cc1 | > 100 µM (inactive) | > 100 µM (inactive) | > 100 µM (inactive) | > 100 µM (inactive) |  |  | > 100 µM (inactive) | > 100 µM (inactive) | 97.7 µM (inactive) | > 100 µM (inactive) | > 100 µM (inactive) | > 100 µM (inactive) | 49.4 µM (inactive) | 43.2 µM (inactive) | > 100 µM (inactive) | > 100 µM (inactive) | > 100 µM (inactive) | > 100 µM (inactive) | > 100 µM (inactive) | 
7 | O=C(NC1CCN(Cc2ccccc2)CC1)c1cccc(I)c1 | 22.2 µM (inactive) | 17 µM (inactive) |  | 33.3 µM (inactive) | 40 µM (inactive) | 15.3 µM (inactive) | 17.6 µM (inactive) | 50.9 µM (inactive) | 22 µM (inactive) | 15.8 µM (inactive) | 16.4 µM (inactive) | 17.8 µM (inactive) | 13.9 µM (inactive) | 39 µM (inactive) | 58.2 µM (inactive) | 60.5 µM (inactive) | 31.8 µM (inactive) | 22.6 µM (inactive) | 17.2 µM (inactive) | 18.8 µM (inactive)
8 | CC(C)(C)OC(=O)NC(Cc1ccccc1)C(=O)N1CCCC1C(N)=O (stereo not drawn) (Boc-Phe-Pro-NH2; configuration not given here) | > 100 µM (inactive) |  | > 100 µM (inactive) | > 100 µM (inactive) | > 100 µM (inactive) | > 100 µM (inactive) | > 100 µM (inactive) | > 100 µM (inactive) | 1.74 µM (inactive) | > 100 µM (inactive) | > 100 µM (inactive) | > 100 µM (inactive) | > 100 µM (inactive) | > 100 µM (inactive) | > 100 µM (inactive) |  |  | > 100 µM (inactive) | > 100 µM (inactive) | > 100 µM (inactive)
